{"source": "patent US12605382B2", "about": "“Pharmaceutical composition for preventing, alleviating, or treating cancer containing 2,6-dichloro-4-(4-(4-hydroxycyclohexylamino)-7H- pyrrolo[2,3-d]pyrimidin-5-yl)phenol as active ingredient” (JBKLAB CO., LTD., priority 2021, dated 2026)", "key": {"Hep3B [1]": {"test_system": "Hep3B", "assay": "WST-8 cell viability assay, hepatocellular carcinoma cell line", "assay_type": "cell-based", "details": "24, 48 and 72 hours", "method": "(§1) Specifically, the WST-8 assay to check the cell viability of HepG2 and Hep3B, which are hepatocellular carcinoma cell lines shown in FIGS. 7A-7C and 8A-8C, was performed as follows. HepG2 and Hep3B were each seeded in 96-well plates at the density of 5×10^3 cells/well and cultured for 24 hours. Then, Sorafenib and OPT-0139 were diluted stepwise at a twofold concentration and then treated to the plates at different concentrations, followed by culture for 24, 48, and 72 hours. […] of WST-8 solution was added to each well of the plate, and the absorbance was measured with a microplate reader using a 450 nm optical filter to measure the formazan produced by the reducing factors in living cells.\n(§2) Therefore, the number of living cells could be measured by measuring absorbance."}, "HepG2 [2]": {"test_system": "HepG2", "assay": "WST-8 cell viability assay, hepatocellular carcinoma cell line", "assay_type": "cell-based", "details": "24, 48 and 72 hours", "method": "as §1, §2"}, "Hep3B [3]": {"test_system": "Hep3B", "assay": "Clonogenic assay", "assay_type": "cell-based", "details": "2.5 and 5 μM, 10 days", "method": "(§3) HepG2 and Hep3B were each seeded in 12-well plates at the density of 3×10^3 cells/well and cultured for 24 hours. Then, Sorafenib and the compound of Example 1 were treated thereto at 2.5 and 5 μM each and cultured for 10 days. Upon completion of the culture, the cells were washed with PBS, fixed with 37% formaldehyde, and stained with 0.01% crystal violet. After staining, the cells were washed with distilled water and the colonies of stained cells were photographed."}, "HepG2 [4]": {"test_system": "HepG2", "assay": "Clonogenic assay", "assay_type": "cell-based", "details": "2.5 and 5 μM, 10 days", "method": "as §3"}, "Huh-7": {"test_system": "Huh-7", "assay": "Cell viability alone and in combination with sorafenib", "assay_type": "cell-based, Human", "details": "1 μM alone", "method": "(§4) Human liver cancer cell lines (SK Hep1 and Huh-7) were treated with control (no treatment), 0.1 μM of the compound of Example 1, 1 μM of sorafenib, and 0.1 μM of the compound of Example 1/1 μM of sorafenib, and the cell viability of SK Hep1 and Huh-7 was confirmed."}, "SK Hep1": {"test_system": "SK Hep1", "assay": "Cell viability alone and in combination with sorafenib", "assay_type": "cell-based, Human", "details": "1 μM alone", "method": "as §4"}, "OVCAR-3": {"test_system": "OVCAR-3", "assay": "Cell viability alone and in combination with cisplatin", "assay_type": "cell-based, Human", "details": "1 μM alone", "method": "(§5) Human ovarian cancer cell lines (SKOV-3 and OVCAR-3) were treated with control (no treatment), 0.1 μM of the compound of Example 1, 1 μM of cisplatin, and 0.1 μM of the compound of Example 1/1 μM of cisplatin, and the cell viability of SKOV-3 and OVCAR-3 was confirmed."}, "SKOV-3": {"test_system": "SKOV-3", "assay": "Cell viability alone and in combination with cisplatin", "assay_type": "cell-based, Human", "details": "1 μM alone", "method": "as §5"}}, "data": [{"smiles": "CNC(=O)c1cc(Oc2ccc(NC(=O)Nc3ccc(Cl)c(C(F)(F)F)c3)cc2)ccn1", "note": "[Sorafenib, reference compound]", "values": [{"measurement": "cell viability", "setting": "Hep3B [1]", "result": "decreased the cell viability dose and time dependently"}, {"measurement": "cell viability", "setting": "HepG2 [2]", "result": "decreased the cell viability dose and time dependently"}, {"measurement": "number of colonies, treated vs not treated", "setting": "Hep3B [3]", "result": "clear difference in the number of colonies"}, {"measurement": "number of colonies, treated vs not treated", "setting": "HepG2 [4]", "result": "clear difference in the number of colonies"}, {"measurement": "cell viability", "setting": "Huh-7", "result": "suppressed"}, {"measurement": "cell viability", "setting": "SK Hep1", "result": "suppressed"}]}, {"smiles": "N.N.[Cl][Pt][Cl]", "note": "[cisplatin, reference compound]", "values": [{"measurement": "cell viability", "setting": "OVCAR-3", "result": "suppressed"}, {"measurement": "cell viability", "setting": "SKOV-3", "result": "suppressed"}]}]}
